Measured values: US6218369A, “Pharmaceutical compositions containing flavanolignanes and methods for using same as an antiproliferative” (Indena S.p.A., priority 1995, dated 2001)
pIC50, pKd: −log10 of the molar value. Where two headings read alike, the source gives them in different places.

Assays:
MCF-7 ADRr line = assay: synergistic antiproliferative effect of a combination of ADR and silybin (isobolic method); assay type: cell-based, human
Protocol: (§1) The determination of the binding to the estrogen receptor has been carried out on cells of ovary tumor or of other organ tumors, cultured in monolayers using as medium the Dulbecco Modified Medium added with calf serum and with 200 unities/ml of penicillin. The cells used for the tests have been trypsinated every week and placed on a plate at a […] density and incubated at 37° C. under air atmosphere containing 5% CO2 and humidity. […] After 24 hours the medium is substituted with fresh medium and the flavanolignanes dissolved in absolute ethanol are added. […] The treatment described above is repeated at 24 hour intervals during the 72 hours of the test time. The inhibition of the cell proliferation is evaluated by direct count of the cells, comparing the growth of the controls versus that of the treated samples.
(§2) The inhibition on cell proliferation is evaluated by direct count of the cells, comparing the growth of controls versus that of the treated ones.
(§3) In order to verify wether such an effect of a combination of silybin with adriamycin or cisplatin is due to a synergistic or an additive action, the data have been analyzed with the isobolic method by Berenbau (Adv. Cancer Res., 25, 269, 1981).

A2780 WT cell line = assay: synergistic antiproliferative effect of the CIS-silybin combination (isobolic method); assay type: cell-based, human
Protocol: (§4) The determination of the binding to the estrogen receptor has been carried out on cells of ovary tumor or of other organ tumors, cultured in monolayers using as medium the Dulbecco Modified Medium added with calf serum and with 200 unities/ml of penicillin. The cells used for the tests have been trypsinated every week and placed on a plate at a […] density and incubated at 37° C. under air atmosphere containing 5% CO2 and humidity. […] After 24 hours the medium is substituted with fresh medium and the flavanolignanes dissolved in absolute ethanol are added. The controls are treated in the same experimental conditions only with the vehicle in the absence of the active ingredient. The treatment described above is repeated at 24 hour intervals during the 72 hours of the test time. The inhibition of the cell proliferation is evaluated by direct count of the cells, comparing the growth of the controls versus that of the treated samples.
as §2
As reported in Table III, when silybin is used in combination with CIS, a synergistic inhibition effect on the growth is observed, compared with corresponding doses of the medicaments used alone.
as §3

A2780 WT cells [1] = assay: antiproliferative effect on A2780 WT ovary carcinoma cells (direct cell count); assay type: cell-based, human; details: for pIC50: Homo sapiens
Protocol: as §1, with “samples. The inhibition on cell proliferation is evaluated by direct count of the cells, comparing the growth of controls versus that of the treated ones. […] The results are the average of two experiments carried out in triplicated.” for “samples.”

[2] = test system: tumors implanted in the nude athymic mouse; assay: inhibition of growth of tumors implanted in nude athymic mouse; details: test not specified (follows in vivo mouse and man results)
Protocol: Moreover, the above flavanolignanes were evidenced to inhibit in vivo the cell proliferation, by measuring the size of tumors implanted in the nude athymic mouse according to the conventional conditions of literature. The treatment of the animals at doses from 1 to 100 mg/Kg evidenced a marked regression of the studied tumors until their disappearance in a high percentage of individuals.
In the in vitro tests flavanolignanes have been used as such, whereas in in vivo tests the complexes thereof with phospholipids, described in EP-A-0209038, have been used.

[3] = biological target: estrogen receptors of type II; details: read-out: dissociation affinity constant KD; cited from earlier work
human leukemia cells = details: cited from earlier work
other cell lines = details: cited from earlier work
A2780 CIS cells = assay: antiproliferative effect on A2780 CIS (CIS resistant) ovary carcinoma cells; assay type: cell-based; details: Homo sapiens, A2780cis, ovary ca CIS resistant, exposure 72 h
Protocol: as §4, §2

OVCA-433 cells = assay: antiproliferative effect on OVCA-433 ovary carcinoma cells; assay type: cell-based; details: Homo sapiens, OVCA433; OVCA-433, ovary ca, exposure 72 h
Protocol: as §4, §2

MCF-7 ADRr cells = assay: antiproliferative effect on MCF-7 ADRr (ADR resistant) breast carcinoma cells; assay type: cell-based; details: Homo sapiens, MCF7, breast ca ADR resistant, exposure 72 h
Protocol: as §4, §2

[4] = test system: different stabilized cell lines, including MCF-7 ADRr, A2780 CIS; assay: antiproliferative effect on different stabilized cell lines (overall statement); assay type: cell-based, human
Text: In order to verify the antiproliferative effect of flavanolignanes, the growth curves of different stabilized cell lines deriving from various human tumors have been examined in the presence of the compounds and their capability to interact with the Type II EBS in ovary carcinoma samples has been evaluated.
as §4, §2

A2780 WT cells [5] = assay: cytofluorimetric analysis of cell cycle phase distribution; assay type: cell-based, human
Protocol: *A2780 WT cells were cultured for 2 days with or without 10 μM silybin.

[6] = test system: human tumor primary cultures; assay: antiproliferative activity on human tumor primary cultures; assay type: cell-based
Text: A plurality of the tested flavanolignanes have a similar behaviour. In Table V, the data relating to silybin, silidianin, silymarin and dehydrosilybin are reported. The diastereomeric forms of silybin and isosilybin are as well active in these tests.

[7] = isoeffective with ADR 0.1 μg/ml + silybin 0.1 μM (80% of control)
[8] = isoeffective with ADR 0.5 μg/ml + silybin 0.1 μM (76% of control)
[9] = isoeffective with ADR 1 μg/ml + silybin 0.1 μM (69% of control)
[10] = isoeffective with ADR 2.5 μg/ml + silybin 0.1 μM (62% of control)
[11] = isoeffective with ADR 5 μg/ml + silybin 0.1 μM (47% of control)
[12] = isoeffective with ADR 10 μg/ml + silybin 0.1 μM (39% of control)
[13] = isoeffective with CIS 0.1 μg/ml + silybin 0.1 μM (67% control)
[14] = isoeffective with CIS 0.1 μg/ml + silybin 1 μM (54% control)
[15] = isoeffective with CIS 0.25 μg/ml + silybin 0.1 μM (58% control)
[16] = isoeffective with CIS 0.25 μg/ml + silybin 1 μM (35% control)
[17] = isoeffective with CIS 0.5 μg/ml + silybin 0.1 μM (37% control)
[18] = isoeffective with CIS 0.5 μg/ml + silybin 1 μM (25% control)
[19] = isoeffective with CIS 1 μg/ml + silybin 0.1 μM (18% control)
[20] = isoeffective with CIS 1 μg/ml + silybin 1 μM (12% control)
[21] = A2780 WT, ovary ca, exposure 72 h, read-out: IC50

## COc1cccc2c1C(=O)c1c(O)c3c(c(O)c1C2=O)C[C@@](O)(C(=O)CO)C[C@@H]3O[C@H]1C[C@H](N)[C@H](O)[C@H](C)O1 [ADR, adriamycin, reference compound]
MCF-7 ADRr line; [7]
  ADR (isoeffective dose alone): 0.6 μM/ml
MCF-7 ADRr line; [8]
  ADR (isoeffective dose alone): 0.9 μM/ml
MCF-7 ADRr line; [9]
  ADR (isoeffective dose alone): 2.5 μM/ml
MCF-7 ADRr line; [10]
  ADR (isoeffective dose alone): 5.4 μM/ml
MCF-7 ADRr line; [11]
  ADR (isoeffective dose alone): > 10 μM/ml
MCF-7 ADRr line; [12]
  ADR (isoeffective dose alone): > 10 μM/ml

## N.N.[Cl][Pt][Cl] [CIS, cisplatin, reference compound]
A2780 WT cell line; [13]
  CIS (isoeffective dose alone): 0.23 µg/mL
A2780 WT cell line; [14]
  CIS (isoeffective dose alone): 0.34 µg/mL
A2780 WT cell line; [15]
  CIS (isoeffective dose alone): 0.31 µg/mL
A2780 WT cell line; [16]
  CIS (isoeffective dose alone): 0.56 µg/mL
A2780 WT cell line; [17]
  CIS (isoeffective dose alone): 0.54 µg/mL
A2780 WT cell line; [18]
  CIS (isoeffective dose alone): 0.82 µg/mL
A2780 WT cell line; [19]
  CIS (isoeffective dose alone): > 1 µg/mL
A2780 WT cell line; [20]
  CIS (isoeffective dose alone): > 1 µg/mL

## COc1cc(C2Oc3cc(-c4oc5cc(O)cc(O)c5c(=O)c4O)ccc3OC2CO)ccc1O (stereo not shown) [dehydrosilybin]
A2780 WT cells [1]; A2780, 72 h
  pIC50: 5.54
[2]
  activity: particularly marked activity

## C[C@]12CC[C@@H]3c4ccc(O)cc4CC[C@H]3[C@@H]1CC[C@@H]2O [estradiol]
[3]
  pKd: 7.70 to 8.00

## COc1cc(C2Oc3ccc(C4Oc5cc(O)cc(O)c5C(=O)C4O)cc3OC2CO)ccc1O (stereo not shown) [isosilybin]
A2780 WT cells [1]; diastereomeric forms, growth tests of Table V
  activity in these tests: active

## O=c1c(O)c(-c2ccc(O)c(O)c2)oc2cc(O)cc(O)c12 [quercetin]
Human leukemia cells
  inhibiting activity on proliferation: some inhibiting activity
Other cell lines
  activity with the usual chemotherapeuticals: synergistic activity
Other cell lines; other cell lines
  inhibiting activity on proliferation: some inhibiting activity

## COc1cc(C2C3C=C([C@H]4Oc5cc(O)cc(O)c5C(=O)[C@@H]4O)C4C2COC4(O)C3=O)ccc1O (stereo partly shown) [silidianin]
A2780 WT cells [1]; [21]
  pIC50: 4.92
[2]
  activity: particularly marked activity

## COc1cc(C2Oc3cc(C4Oc5cc(O)cc(O)c5C(=O)C4O)ccc3OC2CO)ccc1O (stereo not shown) [silybin]
A2780 WT cells [1]; [21]
  pIC50: 4.92
A2780 CIS cells
  pIC50: 4.85
OVCA-433 cells
  pIC50: 5.32
MCF-7 ADRr cells
  pIC50: 4.62
[4]; 0.01 μM to 20 μM, FIG. 1 and Table I
  antiproliferative effect: dose-dependent antiproliferative effect
[4]; Homo sapiens, different cell lines, silybin 0.01 μM to 20 μM, read-out: IC50 (range over cell lines)
  pIC50: 4.62 to 5.32
A2780 WT cells [5]; 10 μM silybin, 2 days, control 10.3
  cells in phase G2/M: 8.6%
A2780 WT cells [5]; 10 μM silybin, 2 days, control 31
  cells in phase S: 20.9%
A2780 WT cells [5]; 10 μM silybin, 2 days, control 58.7
  cells in phase G0/G1: 70.5%
A2780 WT cells [5]; A2780 WT
  effect on percentage of phase G0/G1 cells: mild increase
  effect on percentage of phase S cells: decrease in the percentage of phase S cells
A2780 WT cell line; [13]
  Silybin (isoeffective dose alone): 2.9 µM
A2780 WT cell line; [14]
  Silybin (isoeffective dose alone): 8.2 µM
A2780 WT cell line; [15]
  Silybin (isoeffective dose alone): 6.4 µM
A2780 WT cell line; [16]
  Silybin (isoeffective dose alone): > 50 µM
A2780 WT cell line; [17]
  Silybin (isoeffective dose alone): > 50 µM
A2780 WT cell line; [18]
  Silybin (isoeffective dose alone): > 50 µM
A2780 WT cell line; [19]
  Silybin (isoeffective dose alone): > 50 µM
A2780 WT cell line; [20]
  Silybin (isoeffective dose alone): > 50 µM
MCF-7 ADRr line; [7]
  Silybin (isoeffective dose alone): 0.1 µM
MCF-7 ADRr line; [8]
  Silybin (isoeffective dose alone): 0.36 µM
MCF-7 ADRr line; [9]
  Silybin (isoeffective dose alone): 2.2 µM
MCF-7 ADRr line; [10]
  Silybin (isoeffective dose alone): 7 µM
MCF-7 ADRr line; [11]
  Silybin (isoeffective dose alone): 35 µM
MCF-7 ADRr line; [12]
  Silybin (isoeffective dose alone): > 50 µM
[6]
  antiproliferative activity: antiproliferative activity
